The Ki is a dissociation constant, usually derived from enzyme kinetics or from competition with a known ligand. Usually EC25 stands for the point of the concentration-response curve where the effect stands at 25%. A low value points to greater potency.

The target of one experiment is Adenosine A2 receptor (Rattus norvegicus, UniProt P29276+P30543).
The target of another experiment is T1, Adenosine receptor A1 (Rattus norvegicus, UniProt P25099).
T1 sequence (P25099 whole entry): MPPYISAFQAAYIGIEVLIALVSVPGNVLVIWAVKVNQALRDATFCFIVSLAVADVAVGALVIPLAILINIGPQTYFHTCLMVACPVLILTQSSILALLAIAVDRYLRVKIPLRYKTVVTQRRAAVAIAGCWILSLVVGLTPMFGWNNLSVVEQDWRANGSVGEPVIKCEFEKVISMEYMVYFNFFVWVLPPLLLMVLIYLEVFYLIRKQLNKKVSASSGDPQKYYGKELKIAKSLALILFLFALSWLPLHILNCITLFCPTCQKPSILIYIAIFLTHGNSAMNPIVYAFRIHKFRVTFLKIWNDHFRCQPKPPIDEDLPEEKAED
The experiment is described as follows: Adenosine A1 receptor binding was measured in adenosine deaminase (ADA) pretreated rat cortical membranes using [3H]cyclohexyladenosine in the presence of 2-chloroadenosine.

A short description of experiment [1]: Ratio of A1-receptor binding to that of A2-receptor binding.
Experiment [2] is filed under the species Rattus norvegicus. The experiment is described as follows: Effective concentration required for 25% increase in coronary flow(CF) in perfused working heart model was determined. Format: functional.
Experiment [3] is filed under the species Rattus norvegicus. The experiment is described as follows: Effective concentration required for 25% decrease in heart rate in perfused working heart model was determined.

Regarding `CCNC(=O)[C@H]1O[C@@H](n2cnc3c(N)nc(NCCc4ccc(CCC(=O)OC)cc4)nc32)[C@H](O)[C@@H]1O`, the Ki at Adenosine A2 receptor amounted to 9 nM; at Adenosine receptor A1 it was 1260 nM. For the same compound, the Ratio in experiment [1] was 140.
On the same counts, the results for `CCNC(=O)[C@H]1O[C@@H](n2cnc3c(N)nc(NCc4ccccc4)nc32)[C@H](O)[C@@H]1O` are 1130 nM, 8600 nM and 7.6.
With `CCNC(=O)[C@H]1O[C@@H](n2cnc3c(N)nc(NCCc4ccc(OCC(=O)O)cc4)nc32)[C@H](O)[C@@H]1O`, the Ki was found to be 42 nM on Adenosine A2 receptor and 4250 nM on Adenosine receptor A1. The Ratio in experiment [1] amounted to 101.
On the same counts, the results for `Nc1nc(NCCc2ccccc2)nc2c1ncn2[C@@H]1O[C@H](C(=O)NC2CC2)[C@@H](O)[C@H]1O` are 14 nM, 502 nM and 36.
Regarding `CCNC(=O)[C@H]1O[C@@H](n2cnc3c(N)ncnc32)[C@H](O)[C@@H]1O` [NECA], the values for the EC25 in the experiment filed under Rattus norvegicus [2] and in the experiment filed under Rattus norvegicus [3] were 5 nM and 60 nM, respectively.
Taken in the same sequence, the figures for `CCNC(=O)[C@H]1O[C@@H](n2cnc3c(N)nc(NCCc4ccc(CCC(=O)O)cc4)nc32)[C@H](O)[C@@H]1O` [CGS-21680] were 2 nM and more than 3000 nM.
`CCNC(=O)[C@H]1O[C@@H](n2cnc3c(N)nc(NCCc4ccc(F)cc4)nc32)[C@H](O)[C@@H]1O`: the Ki was determined as 7.7 nM at Adenosine A2 receptor and 1180 nM on Adenosine receptor A1. Further, the Ratio in experiment [1] is 154.
On the same counts, the results for `CCNC(=O)[C@H]1O[C@@H](n2cnc3c(N)nc(NCCc4ccc(CC(=O)O)cc4)nc32)[C@H](O)[C@@H]1O` are 45 nM, 4880 nM and 109.
As for `CCNC(=O)[C@H]1O[C@@H](n2cnc3c(N)nc(N(C)CCc4ccccc4)nc32)[C@H](O)[C@@H]1O`, the inhibition constant Ki on Adenosine A2 receptor was determined as 71 nM; at Adenosine receptor A1, 12100 nM. Besides, in experiment [1], the Ratio came to 170.
For `CNC(=O)[C@H]1O[C@@H](n2cnc3c(N)nc(NCCc4ccccc4)nc32)[C@H](O)[C@@H]1O`, the results for the Ki on Adenosine A2 receptor and on Adenosine receptor A1 were 77 nM and 5350 nM, respectively. The Ratio in experiment [1] was 69.
Take `CCNC(=O)[C@H]1O[C@@H](n2cnc3c(N)nc(NCCc4ccccc4)nc32)[C@H](O)[C@@H]1O`: the EC25 was 3 nM in the experiment listed under Rattus norvegicus [2] and more than 3000 nM in the experiment listed under Rattus norvegicus [3]. At Adenosine receptor A1, the Ki is 473 nM.
Consider `CC(=O)O[C@]1(C(C)=O)CC[C@H]2[C@@H]3C=C(Cl)C4=CC(=O)[C@@H]5C[C@@H]5[C@]4(C)[C@H]3CC[C@@]21C` [CYPROTERONE ACETATE], for which the Ki on Adenosine A2 receptor came out at 636 nM; on Adenosine receptor A1, 1.3 nM. Further, the Ratio in experiment [1] is 0.002.
Take `CCNC(=O)[C@H]1OC(n2cnc3c(N)nc(NCCc4ccc(Cl)cc4)nc32)[C@H](O)[C@@H]1O` (stereo partly specified): the Ki at Adenosine A2 receptor was 7.5 nM; on Adenosine receptor A1, 1510 nM. For the same compound, the Ratio in experiment [1] was 201.
For `CNC(=O)[C@H]1O[C@@H](n2cnc3c(N)ncnc32)[C@H](O)[C@@H]1O`, the Ki on Adenosine receptor A1 is 101 nM.
On to `Nc1nc(Nc2ccccc2)nc2c1ncn2[C@@H]1O[C@H](CO)[C@@H](O)[C@H]1O`, for which the Ki at Adenosine A2 receptor turned out to be 71 nM. The figures for the EC25 in the experiment listed under Rattus norvegicus [2] and in the experiment listed under Rattus norvegicus [3] were 110 nM and more than 3000 nM, respectively.

Source of the values: ChEMBL document CHEMBL1124836 (J Med Chem, 1990).
